According to patent publication US8178506B2, “Oligomeric compounds and compositions for use in modulation of small non-coding RNAs” (Regulus Therapeutics Inc., priority 2003, dated 2012):
In the oligonucleotide strings, read from the 5' end, every base follows the letter of its sugar. An asterisk marks phosphorothioate; unmarked linkages are phosphodiester. Other units and linkages are bracketed, terminal groups are in braces. A string of capitals states the bases alone. e = 2'-O-(2-methoxyethyl) (MOE); [5mC] = 5-methylcytosine

Tests used:
PEPCK-c = PEPCK-c mRNA expression in HepG2 cells; format: cell-based, human; conditions: HepG2, 100 nM oligomeric compound
HeLa cells = test: Cell cycle assay in HeLa cells; format: cell-based, human; conditions: HeLa cells, 150 nM oligomeric compound; for % cells aneuploid / % cells in cell cycle phase G1 / % cells in cell cycle phase G2/M / % cells in cell cycle phase S / % cells in cell cycle phase subG1: 24 hours, relative to untreated control (UTC = 100); for % cells in cell cycle phase: G1 / % cells in cell cycle phase: G2/M / % cells in cell cycle phase: S / % cells in cell cycle phase: aneuploid / % cells in cell cycle phase: subG1: 48 hours after treatment, relative to untreated control (UTC=100)
[1] = Experiment 1, basal (no insulin)
[2] = Experiment 2, 1 nM insulin treated

Substance | PEPCK-c (% UTC) (PEPCK-c; [1]) | PEPCK-c (% UTC) (PEPCK-c; [2]) | % cells aneuploid (HeLa cells) [%] | % cells in cell cycle phase G1 (HeLa cells) [%] | % cells in cell cycle phase G2/M (HeLa cells) [%] | % cells in cell cycle phase S (HeLa cells) [%] | % cells in cell cycle phase subG1 (HeLa cells) [%] | % cells in cell cycle phase: G1 (HeLa cells) [%] | % cells in cell cycle phase: G2/M (HeLa cells) [%] | % cells in cell cycle phase: S (HeLa cells) [%] | % cells in cell cycle phase: aneuploid (HeLa cells) [%] | % cells in cell cycle phase: subG1 (HeLa cells) [%]
327903 (antisense eA*eA*e[5mC]*eT*eA*eT*eA*e[5mC]*eA*eA*e[5mC]*e[5mC]*eT*eA*e[5mC]*eT*eA*e[5mC]*e[5mC]*eT*e[5mC]*eA) [compound 327903] | 71 | 87 | 98 | 92 | 106 | 104 | 118 | 102 | 98 | 95 | 94 | 74
327878 (antisense e[5mC]*eT*eA*eG*eT*eG*eG*eT*e[5mC]*e[5mC]*eT*eA*eA*eA*e[5mC]*eA*eT*eT*eT*e[5mC]*eA*e[5mC]) [compound 327878] | 45 | 29 | 73 | 96 | 122 | 94 | 124 | 89 | 114 | 119 | 92 | 50
